For one experiment, the target named is T1, CDK1:Cyclin-B (Homo sapiens, UniProt P06493).
T1 construct: purchased New England Biolabs, Beverly, Mass; 6020; host or cells: insect cells
Kind of experiment: CDK1 Screening Assay. It is filed as biochemical. As to conditions: 10 μM ATP, biotinylated histone-H1 peptide substrate, 33P-γ-ATP FlashPlate; read-out: Kinase IC50 CDK1. The protocol:
(§1) A kinase reaction mixture was prepared containing 50 mM Tris.HCl pH=8, 10 mM MgCl2, 0.1 mM Na3PO4, 1 mM DTT, 10 μM ATP, 0.025 μM biotinylated histone-H1 peptide substrate and 0.2 μCuries per well ^33P-γ-ATP (2000-3000 Ci/mmol). 70 μL of the kinase reaction mixture was dispensed into the well of a streptavidin coated FlashPlate™ (Cat. # SMP103, NEN, Boston, Mass.). Then 1 μL of test compound stock in 100% DMSO was added to the wells resulting in a final concentration of 1% DMSO in the reaction well with a 100 μL final reaction well volume.
(§2) The CDK1:Cyclin-B protein was diluted in 50 mM Tris.HCl pH=8.0, 0.1% BSA at a concentration of 1 ng per μL and 30 μL (30 ng enzyme per test well) was added to each well to initiate the reaction. The reaction was incubated for one hour at 30° C. At the end of the one hour incubation, the reaction was terminated by aspirating the mixture from the plate and washing the wells twice with PBS containing 100 mM EDTA. The histone-H1 biotinylated peptide substrate became immobilized on the Flashplate™ and the incorporation of ^33P-γ-ATP was measured by reading the plate on a scintillation counter. Inhibition of the enzymatic activity of CDK1 was measured by observing a reduced amount of ^33P-γ-ATP incorporated into the immobilized peptide.
The CDK1 kinase used was isolated from insect cells expressing both the human CDK1 catalytic subunit and its positive regulatory subunit cyclin B (New England Biolabs, Beverly, Mass., Cat. # 6020).
(§3) An IC50 listed as >0.1, >1, >10 or >100 means no observed 50% inhibition at the indicated test concentration. […] ND means the compound was not tested in the assay specified.

The subject of experiment [1] is HeLa cervical adenocarcinoma. The experiment in a line: Inhibition of cell proliferation (14C-thymidine incorporation), HeLa. It is filed as cell-based. The protocol: (§4) The ability of a test compound to inhibit the proliferation of cell growth was determined by measuring incorporation of ^14C-labelled thymidine into newly synthesized DNA within the cells. This method was used on American Type Culture Collection (ATCC, Virginia) cell lines derived from carcinomas originating from several tissues such as HeLa cervical adenocarcinoma (ATCC Cat. #CCL-2), A375 malignant melanoma (ATCC Cat. #CRL-1619) and HCT-116 colon carcinoma (ATCC Cat. #CCL-247).
(§5) The carcinoma cells were trypsinized and counted. The cells (3000-8000 count) were added to each well of a 96-well CytoStar tissue culture treated scintillating microplate (Amersham #RPNQ0160) in complete medium (100 μL) and the plate was incubated in complete medium for 24 hrs at 37° C. in an […] containing 5% CO2.
Test compound (1 μL) in 100% DMSO was added to the plate test-wells with DMSO only added to control-wells. The plate is incubated in complete medium for a second 24 hr period at 37° C. in an atmosphere containing 5% CO2.
An aliquot of a solution of Methyl ^14C-thymidine (56 mCi/mmol) (NEN #NEC568 or Amersham #CFA532) in complete medium (20 uL to provide […]) was also added to each well and the plate was incubated for a third 24 hr period at 37° C. in an atmosphere containing 5% CO2.
The plate contents were discarded and the plate was washed twice with PBS (200 μL), then PBS (200 μL) was added to each well. The plate was sealed and the degree of methyl ^14C-thymidine incorporation is quantified on a Packard Top Count.
An IC50 value shown as >10 or >100 means that 50% inhibition was not observed at the highest concentration.

A further experiment deals with T2, CDK2:Cyclin A (Homo sapiens, UniProt P24941).
T2 construct: purchased Upstate Biotech, Lake Placid, N.Y
Kind of experiment: CDK2 Screening Assay. Particulars: 10 μM ATP, biotinylated histone-H1 peptide substrate, 33P-γ-ATP FlashPlate; read-out: Kinase IC50 CDK2. It is filed as biochemical. The protocol:
as §1
as §2, with “CDK2:Cyclin A” for “CDK1:Cyclin-B”, “CDK2” for “CDK1”
The CDK2 kinase used was complexed with cyclin A and is commercially available (Upstate Biotech, Lake Placid, N.Y.).
as §3

The target in a further experiment is VEGF-R2 kinase domain (Rattus norvegicus, UniProt O08775). Kind of experiment: VEGF-R2 Screening Assay. It is filed as biochemical. As to conditions: 10 μM ATP, biotinylated PLC1 peptide substrate, 33P-γ-ATP FlashPlate; read-out: Kinase IC50 VEGFR. The protocol: A kinase reaction mixture was prepared containing 50 mM Tris.HCl pH=8, 10 mM MgCl2, 0.1 mM Na3PO4, 1 mM DTT, 10 μM ATP, 0.025 μM biotinylated peptide substrate and 0.8 μCuries per well ^33P-γ-ATP (2000-3000 Ci/mmol). 70 μL of the kinase reaction mixture was dispensed into the well of a streptavidin coated FlashPlate™ (Cat. # SMP103, NEN, Boston, Mass.). Then 1 μL of test compound stock in 100% DMSO was added to the wells resulting in a final concentration of 1% DMSO in the reaction well with a 100 μL final reaction well volume.
The soluble rat tyrosine kinase containing an N-terminal 6×HIS tag was diluted in 50 mM Tris.HCl pH=8.0, 0.1% BSA at a concentration of 5 ng per μL and 30 μL (150 ng enzyme per test well) was added to each well to initiate the reaction. The reaction was incubated for one hour at 30° C. At the end of the one hour incubation, the reaction was terminated by aspirating the reaction mixture from the plate and washing the wells twice with PBS containing 100 mM EDTA. The PLC1 biotinylated peptide substrate became immobilized on the Flashplate™ and the incorporation of ^33P-γ-ATP was measured by reading the plate on a scintillation counter. Inhibition of the enzymatic activity of the VEGF-R was measured by observing a reduced amount of ^33P-γ-ATP incorporated into the immobilized peptide.
The VEGF-R kinase assay was carried out using the CDK kinase assay procedure except that the enzyme was replaced with the VEGF-R2 fusion protein containing a polyhistidine tag at the N-terminus followed by amino acids 786-1343 of the rat VEGF-R2 kinase domain (GenBank Accession #U93306).
as §3

The test system of the next experiment is A375 malignant melanoma. Kind of experiment: Inhibition of cell proliferation (14C-thymidine incorporation), A375. The class given is cell-based. Particulars: Homo sapiens, A-375; A375, 14C-thymidine incorporation. The protocol: as §4, §5
(§6) Test compound (1 μL) in 100% DMSO was added to the plate test-wells with DMSO only added to control-wells. The plate is incubated in complete medium for a second 24 hr period at 37° C. in an atmosphere containing 5% CO2. […]
(§7) The plate contents were discarded and the plate was washed twice with PBS (200 μL), then PBS (200 μL) was added to each well. The plate was sealed and the degree of methyl ^14C-thymidine incorporation is quantified on a Packard Top Count. […]
For orientation: Incorporation of labelled thymidine or its analogues reports DNA synthesis.

The next experiment relates to HCT-116 colon carcinoma. Kind of experiment: Inhibition of cell proliferation (14C-thymidine incorporation), HCT116. The class given is cell-based. Particulars: Homo sapiens, HCT116, 14C-thymidine incorporation. The protocol:
as §4, §5, §6, §7

One may read the IC50 as the midpoint of a concentration-inhibition curve.

Read-outs that look alike come from different tables or passages of the source.

T1 sequence (P06493 whole entry): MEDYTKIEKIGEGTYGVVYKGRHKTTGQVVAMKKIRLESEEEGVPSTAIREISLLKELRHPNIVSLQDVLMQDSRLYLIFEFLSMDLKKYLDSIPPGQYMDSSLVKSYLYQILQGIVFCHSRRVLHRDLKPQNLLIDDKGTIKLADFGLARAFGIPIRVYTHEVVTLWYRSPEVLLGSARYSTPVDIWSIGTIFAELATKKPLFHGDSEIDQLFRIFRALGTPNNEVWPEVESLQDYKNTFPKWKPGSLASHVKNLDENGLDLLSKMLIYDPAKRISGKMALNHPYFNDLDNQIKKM
T1 sequence (P14635 whole entry partner): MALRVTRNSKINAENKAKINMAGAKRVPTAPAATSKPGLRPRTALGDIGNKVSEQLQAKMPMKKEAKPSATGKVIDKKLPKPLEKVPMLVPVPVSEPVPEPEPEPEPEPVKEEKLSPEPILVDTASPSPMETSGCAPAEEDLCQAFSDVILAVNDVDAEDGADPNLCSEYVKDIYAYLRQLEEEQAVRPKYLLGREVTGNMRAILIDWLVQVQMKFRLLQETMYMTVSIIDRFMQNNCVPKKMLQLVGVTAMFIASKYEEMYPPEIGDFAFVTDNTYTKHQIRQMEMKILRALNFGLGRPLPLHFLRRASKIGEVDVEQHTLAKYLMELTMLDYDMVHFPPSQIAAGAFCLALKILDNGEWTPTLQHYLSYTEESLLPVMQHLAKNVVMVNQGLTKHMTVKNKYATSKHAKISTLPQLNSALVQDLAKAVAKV
Sequence of VEGF-R2 kinase domain (O08775 786-1343): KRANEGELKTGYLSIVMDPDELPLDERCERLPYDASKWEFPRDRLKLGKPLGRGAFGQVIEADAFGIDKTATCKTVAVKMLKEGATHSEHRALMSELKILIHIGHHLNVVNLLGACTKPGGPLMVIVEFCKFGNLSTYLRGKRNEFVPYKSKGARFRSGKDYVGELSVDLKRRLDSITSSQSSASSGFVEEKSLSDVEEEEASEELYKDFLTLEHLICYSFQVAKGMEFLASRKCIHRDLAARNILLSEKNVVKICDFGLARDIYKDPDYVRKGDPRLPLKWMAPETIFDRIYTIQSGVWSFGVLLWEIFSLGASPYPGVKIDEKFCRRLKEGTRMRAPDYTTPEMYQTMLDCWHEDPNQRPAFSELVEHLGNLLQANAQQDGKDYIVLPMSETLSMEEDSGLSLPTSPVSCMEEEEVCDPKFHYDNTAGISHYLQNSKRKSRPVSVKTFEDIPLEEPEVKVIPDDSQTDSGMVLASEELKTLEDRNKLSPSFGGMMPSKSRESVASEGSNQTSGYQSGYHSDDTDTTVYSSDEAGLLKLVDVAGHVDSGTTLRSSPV

In the case of `O=C(Nc1ccccc1)Nc1cccc2nc(Nc3ccccc3)sc12` [Cpd 3, 1-phenyl-3-(2-phenylamino-benzothiazol-7-yl)-urea], the IC50 was more than 100 µM on CDK1:Cyclin-B, more than 10 µM in experiment [1] (Homo sapiens), more than 100 µM at CDK2:Cyclin A and more than 100 µM on VEGF-R2 kinase domain.
Consider `O=C(Nc1ccc2nc(Nc3ccccc3)sc2c1)Nc1c(F)cccc1F` [Cpd 2, 1-(2,6-difluoro-phenyl)-3-(2-phenylamino-benzothiazol-6-yl)-urea], for which the IC50 (at CDK1:Cyclin-B; in experiment [1] (Homo sapiens); at CDK2:Cyclin A; at VEGF-R2 kinase domain) was more than 100 µM each time.
As for `O=C(Nc1c(F)cccc1F)Nc1cccc2sc(Nc3ccccc3)nc12` [Cpd 6, 1-(2,6-difluoro-phenyl)-3-(2-phenylamino-benzothiazol-4-yl)-urea], the IC50 is more than 100 µM on CDK1:Cyclin-B, 72.7 µM in experiment [1] (Homo sapiens), 5.76 µM at CDK2:Cyclin A and more than 100 µM on VEGF-R2 kinase domain.
With `O=C(Nc1ccc(Cl)c(Cl)c1)Nc1cccc2nc(Nc3ccccc3)sc12` [Cpd 4, 1-(3,4-dichloro-phenyl)-3-(2-phenylamino-benzothiazol-7-yl)-urea], the IC50 is more than 100 µM on CDK1:Cyclin-B, more than 10 µM in experiment [1] (Homo sapiens), more than 100 µM on CDK2:Cyclin A and more than 100 µM on VEGF-R2 kinase domain.
With `Cc1ccc(F)c(C(=O)Nc2cccc3sc(Nc4ccccc4)nc23)c1F` [Cpd 48, 2,6-difluoro-3-methyl-N-(2-phenylamino-benzothiazol-4-yl)-benzamide], the IC50 on CDK1:Cyclin-B came to 1.55 µM; in the experiment with A375 malignant melanoma it was 10.4 µM; with HCT-116 colon carcinoma, 5.04 µM; in experiment [1] (Homo sapiens) it was 20.6 µM; at CDK2:Cyclin A, 0.156 µM; at VEGF-R2 kinase domain, 4.58 µM.
For “1-(2,6-difluoro-phenyl)-3-(2-phenylamino-benzothiazol-7-yl)-urea [Cpd 1]”, the IC50 on CDK1:Cyclin-B was more than 100 µM; in experiment [1] it was more than 10 µM; on CDK2:Cyclin A, more than 100 µM; at VEGF-R2 kinase domain, approximately 100 µM.
As to `O=C(Nc1cccc2sc(Nc3ccccc3)nc12)c1ccccc1` [Cpd 9, N-(2-phenylamino-benzothiazol-4-yl)-benzamide], the IC50 on CDK1:Cyclin-B was more than 100 µM; on CDK2:Cyclin A, 17.5 µM; at VEGF-R2 kinase domain, more than 100 µM.
For `O=C(Nc1ccccc1)Nc1cccc2sc(Nc3ccccc3)nc12` [Cpd 5, 1-phenyl-3-(2-phenylamino-benzothiazol-4-yl)-urea], the half-maximal inhibitory concentration (IC50) at CDK1:Cyclin-B is more than 100 µM; in experiment [1] (Homo sapiens), more than 10 µM; at CDK2:Cyclin A it was more than 100 µM; on VEGF-R2 kinase domain it was more than 100 µM.
On to `O=C(Nc1cccc2sc(Nc3ccccc3)nc12)c1ccc(N2CCOCC2)nc1` [Cpd 21, 6-morpholin-4-yl-N-(2-phenylamino-benzothiazol-4-yl)-nicotinamide], for which the IC50 at CDK1:Cyclin-B is 14.8 µM; at CDK2:Cyclin A, 1.54 µM; at VEGF-R2 kinase domain it was more than 100 µM.
The corresponding values for `O=C(Cn1cnnn1)Nc1cccc2sc(Nc3ccccc3)nc12` [Cpd 22, N-(2-phenylamino-benzothiazol-4-yl)-2-tetrazol-1-yl-acetamide] are 1.31 µM, 0.22 µM and more than 100 µM.
For `O=C(Nc1cccc2sc(Nc3ccccc3)nc12)c1c(F)cccc1F` [Cpd 10, 2,6-difluoro-N-(2-phenylamino-benzothiazol-4-yl)-benzamide] the same measures were 3.64 µM, 0.65 µM and 5.96 µM.
For `O=C(Nc1cccc2sc(Nc3ccccc3)nc12)c1ccncn1` [Cpd 15, pyrimidine-4-carboxylic acid (2-phenylamino-benzothiazol-4-yl)-amide], the IC50 at CDK1:Cyclin-B is more than 100 µM; on CDK2:Cyclin A, 89.1 µM; at VEGF-R2 kinase domain, more than 100 µM.
`Cc1ccc(F)c(C(=O)Nc2cccc3sc(Nc4ccc(S(N)(=O)=O)cc4)nc23)c1F` [Cpd 12, 2,6-difluoro-3-methyl-N-[2-(4-sulfamoyl-phenylamino)-benzothiazol-4-yl]-benzamide]: the IC50 on CDK1:Cyclin-B, at CDK2:Cyclin A and at VEGF-R2 kinase domain was more than 100 µM throughout.
As to `O=C(CC1CCCCC1)Nc1cccc2sc(Nc3ccccc3)nc12` [Cpd 58, 2-cyclohexyl-N-(2-phenylamino-benzothiazol-4-yl)-acetamide], the IC50 on CDK1:Cyclin-B, at CDK2:Cyclin A and on VEGF-R2 kinase domain was more than 100 µM throughout.
In the case of `Cc1cc(C)cc(C(=O)Nc2cccc3sc(Nc4ccccc4)nc23)c1` [Cpd 39, 3,5-dimethyl-N-(2-phenylamino-benzothiazol-4-yl)-benzamide], the IC50 on CDK1:Cyclin-B was 7.15 µM; at CDK2:Cyclin A it was 1.03 µM; at VEGF-R2 kinase domain, more than 100 µM.

The values above are taken from patent US20080293785A1, “SUBSTITUTED BENZOTHIAZOLE KINASE INHIBITORS” (priority 2006, published 2008).
